# pIC50: −log10 of the molar value. Values joined by “and” are separate entries in the source; they are usually repeats but may differ in a detail not shown here. Equal values may be shown once.
# Test system: PC3
# Experiment: SRB cell viability assay, docetaxel with/without wilforlide A pretreatment
# Settings: PC3
# [1] = no wilforlide A pre-Tx (control of Table 4), docetaxel 0.001 nM 72 h
# [2] = no wilforlide A pre-Tx (control of Table 4), docetaxel 0.1 nM 72 h
# [3] = no wilforlide A pre-Tx (control of Table 4), docetaxel 0.333 nM 72 h
# [4] = no wilforlide A pre-Tx (control of Table 4), docetaxel 1 nM 72 h
# [5] = no wilforlide A pre-Tx (control of Table 4), docetaxel 3.33 nM 72 h
# [6] = no wilforlide A pre-Tx (control of Table 4), docetaxel 10 nM 72 h
# [7] = no wilforlide A pre-Tx (control of Table 4), docetaxel 33.3 nM 72 h
# [8] = no wilforlide A pre-Tx (control of Table 4), docetaxel 100 nM 72 h
# [9] = no wilforlide A pre-Tx (control of Table 6), docetaxel 0.001 nM 72 h
# [10] = no wilforlide A pre-Tx (control of Table 6), docetaxel 0.1 nM 72 h
# [11] = no wilforlide A pre-Tx (control of Table 6), docetaxel 0.333 nM 72 h
# [12] = no wilforlide A pre-Tx (control of Table 6), docetaxel 1 nM 72 h
# [13] = no wilforlide A pre-Tx (control of Table 6), docetaxel 3.33 nM 72 h
# [14] = no wilforlide A pre-Tx (control of Table 6), docetaxel 10 nM 72 h
# [15] = no wilforlide A pre-Tx (control of Table 6), docetaxel 33.3 nM 72 h
# [16] = no wilforlide A pre-Tx (control of Table 6), docetaxel 100 nM 72 h
# [17] = no wilforlide A pre-Tx (control of Table 8), docetaxel 0.001 nM 72 h
# [18] = no wilforlide A pre-Tx (control of Table 8), docetaxel 0.1 nM 72 h
# [19] = no wilforlide A pre-Tx (control of Table 8), docetaxel 0.333 nM 72 h
# [20] = no wilforlide A pre-Tx (control of Table 8), docetaxel 1 nM 72 h
# [21] = no wilforlide A pre-Tx (control of Table 8), docetaxel 3.33 nM 72 h
# [22] = no wilforlide A pre-Tx (control of Table 8), docetaxel 10 nM 72 h
# [23] = no wilforlide A pre-Tx (control of Table 8), docetaxel 33.3 nM 72 h
# [24] = no wilforlide A pre-Tx (control of Table 8), docetaxel 100 nM 72 h
# [25] = wilforlide A 0.6 μg/ml pre-Tx, docetaxel 0.1 nM 72 h
# [26] = wilforlide A 0.6 μg/ml pre-Tx, docetaxel 0.333 nM 72 h
# [27] = wilforlide A 0.6 μg/ml pre-Tx, docetaxel 1 nM 72 h
# [28] = wilforlide A 0.6 μg/ml pre-Tx, docetaxel 3.33 nM 72 h
# [29] = wilforlide A 0.6 μg/ml pre-Tx, docetaxel 10 nM 72 h
# [30] = wilforlide A 0.6 μg/ml pre-Tx, docetaxel 33.3 nM 72 h
# [31] = wilforlide A 0.6 μg/ml pre-Tx, docetaxel 100 nM 72 h
# [32] = wilforlide A 2.5 μg/ml pre-Tx, docetaxel 0.001 nM 72 h
# [33] = wilforlide A 2.5 μg/ml pre-Tx, docetaxel 0.1 nM 72 h
# [34] = wilforlide A 2.5 μg/ml pre-Tx, docetaxel 0.333 nM 72 h
# [35] = wilforlide A 2.5 μg/ml pre-Tx, docetaxel 1 nM 72 h
# [36] = wilforlide A 2.5 μg/ml pre-Tx, docetaxel 3.33 nM 72 h
# [37] = wilforlide A 2.5 μg/ml pre-Tx, docetaxel 10 nM 72 h
# [38] = wilforlide A 2.5 μg/ml pre-Tx, docetaxel 33.3 nM 72 h
# [39] = wilforlide A 2.5 μg/ml pre-Tx, docetaxel 100 nM 72 h
# [40] = wilforlide A […] pre-Tx, docetaxel 0.001 nM 72 h
# [41] = wilforlide A […] pre-Tx, docetaxel 0.1 nM 72 h
# [42] = wilforlide A […] pre-Tx, docetaxel 0.333 nM 72 h
# [43] = wilforlide A […] pre-Tx, docetaxel 1 nM 72 h
# [44] = wilforlide A […] pre-Tx, docetaxel 3.33 nM 72 h
# [45] = wilforlide A […] pre-Tx, docetaxel 10 nM 72 h
# [46] = wilforlide A […] pre-Tx, docetaxel 33.3 nM 72 h
# [47] = wilforlide A […] pre-Tx, docetaxel 100 nM 72 h
# Procedure: Following the 72 hour wilforlide A treatment, a sulforhodamine B (SRB) assay was used to quantitate living cells. To perform the assay, the wilforlide A media was aspirated from each well, and replaced with a 10% solution of cold trichloroacetic acid (TCA) (Cat #: T6399, purchased from Sigma-Aldrich), and incubated for one hour at 4° C. After the TCA incubation, the TCA solution was aspirated, and the cells were washed five times with tap water. After removing the last wash, the plates were left with lids off at room temperature until the surfaces were dry, which took one to two hours. Then 50 μl of a 0.4% solution of sul-forhodamine B (SRB) sodium salt (Cat #: S9012, purchased from Sigma-Aldrich) was added to each well and the plates were incubated at room temperature for 20 to 30 minutes. Afterwards, the wells were washed five times with a 1% acetic acid solution in 10 mM TRIS base (Cat #: 161-0719, purchased from Bio-Rad Laboratories, Hercules, Calif.). The plates were subsequently left to dry for several hours or overnight. SRB that remained in the dried wells was solubilized by adding 100 μl of SRB solubilization solution (10 mM TRIS base) to each well, and placing the plates either on a gently-moving shaker or letting the plates remain stationary at room temperature until the SRB dissolves, which takes about five to ten minutes. The amount of SRB in each well, which correlated directly to the number of living cells at fixation, was determined spectrophotometrically at an absorbance of 565 nm by a microplate reader.
# In these comparisons, the in vitro IC50 of a tested chemotherapeutic drug (D) in cell culture was compared to the drug's IC50 when drug treatment followed pretreatment of the cells with wilforlide A (Purchased from PI & PI Technology Inc. of Guangzhou, China or the National Institutes for Food and Drug Control in Beijing, China).
# Triplicate wells were assigned to each experimental condition tested, and a 24 hour recovery period for the cells following the seeding of the wells was allowed. During the recovery period, the cells were incubated at 37° C. and 5% CO2.
# At the end of the two hour pre-treatment period, 50 μl aliquots of the desired chemotherapeutic drug RPMI medium were added according to the amounts provided in Table 2.
# After adding the various doses of chemotherapeutic drugs, as described above, the cells were incubated for an additional 72 hours under the same temperature and atmospheric conditions used for the pre-treatment step.
# The cells were then incubated for 72 hours at 37° C. and 5% CO2. After the 72 hour incubation, sulforhodamine B (SRB) assays were performed as described in Example 1 to quantitate living cells.
compound,measurement,setting,value
CC(=O)O[C@@]12CO[C@@H]1C[C@H](O)[C@@]1(C)C(=O)[C@H](O)C3=C(C)[C@@H](OC(=O)[C@H](O)[C@@H](NC(=O)OC(C)(C)C)c4ccccc4)C[C@@](O)([C@@H](OC(=O)c4ccccc4)[C@H]21)C3(C)C [docetaxel],% viable,[1],100.0%
same,mean A,[1],1.839
same,A at 565 nm,"no wilforlide A pre-Tx (control of Table 4), docetaxel 0.001 nM 72 h, background = 0.043",1.827 and 1.892 and 1.800
same,% viable,[2],102.0%
same,mean A,[2],1.876
same,A at 565 nm,"no wilforlide A pre-Tx (control of Table 4), docetaxel 0.1 nM 72 h, background = 0.043",1.875 and 1.878
same,% viable,[3],97.7%
same,mean A,[3],1.796
same,A at 565 nm,"no wilforlide A pre-Tx (control of Table 4), docetaxel 0.333 nM 72 h, background = 0.043",1.845 and 1.808 and 1.737
same,% viable,[4],74.7%
same,mean A,[4],1.374
same,A at 565 nm,"no wilforlide A pre-Tx (control of Table 4), docetaxel 1 nM 72 h, background = 0.043",1.452 and 1.366 and 1.306
same,% viable,[5],46.3%
same,mean A,[5],0.851
same,A at 565 nm,"no wilforlide A pre-Tx (control of Table 4), docetaxel 3.33 nM 72 h, background = 0.043",0.862 and 0.832 and 0.860
same,% viable,[6],22.5%
same,mean A,[6],0.415
same,A at 565 nm,"no wilforlide A pre-Tx (control of Table 4), docetaxel 10 nM 72 h, background = 0.043",0.432 and 0.409 and 0.404
same,% viable,[7],16.4%
same,mean A,[7],0.303
same,A at 565 nm,"no wilforlide A pre-Tx (control of Table 4), docetaxel 33.3 nM 72 h, background = 0.043",0.321 and 0.295 and 0.293
same,% viable,[8],15.9%
same,mean A,[8],0.293
same,A at 565 nm,"no wilforlide A pre-Tx (control of Table 4), docetaxel 100 nM 72 h, background = 0.043",0.300 and 0.270 and 0.311
same,% viable,[9],100.0%
same,mean A,[9],1.952
same,A at 565 nm,"no wilforlide A pre-Tx (control of Table 6), docetaxel 0.001 nM 72 h, background = 0.044",1.888 and 2.010 and 1.957
same,% viable,[10],100.7%
same,mean A,[10],1.966
same,A at 565 nm,"no wilforlide A pre-Tx (control of Table 6), docetaxel 0.1 nM 72 h, background = 0.044",1.980 and 1.925 and 1.992
same,% viable,[11],93.1%
same,mean A,[11],1.817
same,A at 565 nm,"no wilforlide A pre-Tx (control of Table 6), docetaxel 0.333 nM 72 h, background = 0.044",1.735 and 1.845 and 1.871
same,% viable,[12],70.9%
same,mean A,[12],1.384
same,A at 565 nm,"no wilforlide A pre-Tx (control of Table 6), docetaxel 1 nM 72 h, background = 0.044",1.398 and 1.314 and 1.441
same,% viable,[13],46.6%
same,mean A,[13],0.909
same,A at 565 nm,"no wilforlide A pre-Tx (control of Table 6), docetaxel 3.33 nM 72 h, background = 0.044",0.895 and 0.942 and 0.889
same,% viable,[14],22.9%
same,mean A,[14],0.447
same,A at 565 nm,"no wilforlide A pre-Tx (control of Table 6), docetaxel 10 nM 72 h, background = 0.044",0.464 and 0.427 and 0.450
same,% viable,[15],18.1%
same,mean A,[15],0.354
same,A at 565 nm,"no wilforlide A pre-Tx (control of Table 6), docetaxel 33.3 nM 72 h, background = 0.044",0.337 and 0.357 and 0.368
same,% viable,[16],18.4%
same,mean A,[16],0.360
same,A at 565 nm,"no wilforlide A pre-Tx (control of Table 6), docetaxel 100 nM 72 h, background = 0.044",0.349 and 0.366 and 0.365
same,% viable,[17],100.0%
same,mean A,[17],1.990
same,% viable,[18],101.2%
same,mean A,[18],2.014
same,% viable,[19],95.1%
same,mean A,[19],1.892
same,% viable,[20],71.2%
same,mean A,[20],1.417
same,% viable,[21],45.8%
same,mean A,[21],0.911
same,% viable,[22],23.0%
same,mean A,[22],0.458
same,% viable,[23],17.8%
same,mean A,[23],0.354
same,% viable,[24],17.4%
same,mean A,[24],0.346
same,mean A,"wilforlide A 0.6 μg/ml pre-Tx, docetaxel 0.001 nM 72 h",1.807
same,A at 565 nm,"wilforlide A 0.6 μg/ml pre-Tx, docetaxel 0.001 nM 72 h, background = 0.043",1.812 and 1.840 and 1.769
same,% viable,[25],102.3%
same,mean A,[25],1.848
same,A at 565 nm,"wilforlide A 0.6 μg/ml pre-Tx, docetaxel 0.1 nM 72 h, background = 0.043",1.855 and 1.874 and 1.816
same,% viable,[26],99.3%
same,mean A,[26],1.794
same,A at 565 nm,"wilforlide A 0.6 μg/ml pre-Tx, docetaxel 0.333 nM 72 h, background = 0.043",1.759 and 1.804 and 1.820
same,% viable,[27],72.9%
same,mean A,[27],1.317
same,A at 565 nm,"wilforlide A 0.6 μg/ml pre-Tx, docetaxel 1 nM 72 h, background = 0.043",1.303 and 1.386 and 1.263
same,% viable,[28],44.9%
same,mean A,[28],0.811
same,A at 565 nm,"wilforlide A 0.6 μg/ml pre-Tx, docetaxel 3.33 nM 72 h, background = 0.043",0.843 and 0.814 and 0.777
same,% viable,[29],22.7%
same,mean A,[29],0.409
same,A at 565 nm,"wilforlide A 0.6 μg/ml pre-Tx, docetaxel 10 nM 72 h, background = 0.043",0.408 and 0.421 and 0.400
same,% viable,[30],17.5%
same,mean A,[30],0.316
same,A at 565 nm,"wilforlide A 0.6 μg/ml pre-Tx, docetaxel 33.3 nM 72 h, background = 0.043",0.302 and 0.323
same,% viable,[31],16.5%
same,mean A,[31],0.299
same,A at 565 nm,"wilforlide A 0.6 μg/ml pre-Tx, docetaxel 100 nM 72 h, background = 0.043",0.290 and 0.287 and 0.320
same,% viable,[32],100.0%
same,mean A,[32],1.752
same,% viable,[33],101.9%
same,mean A,[33],1.786
same,% viable,[34],94.1%
same,mean A,[34],1.648
same,A at 565 nm,"wilforlide A 2.5 μg/ml pre-Tx, docetaxel 0.333 nM 72 h, background = 0.044",1.672
same,% viable,[35],69.8%
same,mean A,[35],1.222
same,A at 565 nm,"wilforlide A 2.5 μg/ml pre-Tx, docetaxel 1 nM 72 h, background = 0.044",1.201
same,% viable,[36],43.9%
same,mean A,[36],0.769
same,A at 565 nm,"wilforlide A 2.5 μg/ml pre-Tx, docetaxel 3.33 nM 72 h, background = 0.044",0.810
same,% viable,[37],23.0%
same,mean A,[37],0.403
same,A at 565 nm,"wilforlide A 2.5 μg/ml pre-Tx, docetaxel 10 nM 72 h, background = 0.044",0.402
same,% viable,[38],19.2%
same,mean A,[38],0.336
same,A at 565 nm,"wilforlide A 2.5 μg/ml pre-Tx, docetaxel 33.3 nM 72 h, background = 0.044",0.358
same,% viable,[39],18.4%
same,mean A,[39],0.322
same,A at 565 nm,"wilforlide A 2.5 μg/ml pre-Tx, docetaxel 100 nM 72 h, background = 0.044",0.318
same,% viable,[40],100.0%
same,mean A,[40],1.957
same,% viable,[41],100.4%
same,mean A,[41],1.965
same,% viable,[42],92.2%
same,mean A,[42],1.804
same,% viable,[43],67.0%
same,mean A,[43],1.311
same,% viable,[44],41.7%
same,mean A,[44],0.816
same,% viable,[45],23.9%
same,mean A,[45],0.467
same,% viable,[46],19.1%
same,mean A,[46],0.373
same,% viable,[47],18.4%
same,mean A,[47],0.361
same,pIC50,"read-out: Drug IC50 after wilforlide A pre-Tx, pre-Tx amount of wilforlide A printed as none added",8.79
